According to patent US20230382909A1, “BICYCLIC COMPOUNDS” (Aligos Therapeutics, Inc., priority 2022, published 2023):

What was measured:
[1] = system: HBV; assay: HBV-DNA antiviral assay using HepG2.117 cells; type: cell-based, HBV genotype D; settings: Hepatitis B virus, HepG2.117, 72 h
Method: (§1) The following assay procedure describes the HBV antiviral assay, using HepG2.117 cells, which carry a stably integrated genotype D HBV genome under the control of a Tet-off promoter, and intracellular HBV DNA quantification as endpoint. Cell viability is assessed in parallel by measuring the intracellular ATP content using CellTiter-Glo 2.0 (Promega).
On day 0, HepG2.117 cells (which are maintained in routine cell culture with doxycycline present in the medium at a final concentration of 1 μg/mL) are seeded in 96-well plates (white with clear bottom) at a density of 2.0×10^4 cells/well (0.1 mL/well) in medium without doxycycline to induce pgRNA transcription and subsequent formation of HBV particles. The cells are incubated at 37° C. and 5% CO2.
(§2) On day 1, medium is removed from each well, the test articles are diluted in culture medium without doxcycyline and 100 μL was added to cell culture wells (9 concentrations, 4-fold dilution). For each plate, 6 untreated (merely DMSO) wells are included. The final concentration of DMSO in the culture medium is 2%. Each plate is prepared in duplicate (one for HBV DNA extraction, one for CellTiter-Glo 2.0 measurement). The cells are incubated at 37° C. and 5% CO2 for 3 days.
(§3) On day 4, cell viability is assessed using CellTiter-Glo 2.0 and cell lysates are prepared for HBV DNA extraction and subsequent quantification by qPCR.
HBV DNA Quantification by qPCR
Medium is removed from each well and 100 μL of 0.33% NP-40 in H2O was added to each well. Plates are sealed, incubated at 4° C. for 5 mins, vortexed extensively and centrifuged briefly. Next, 35 μL of lysate is added to 65 μL QuickExtract DNA Extraction Solution (Epicentre) in a PCR plate for each well. PCR plate is incubated at 65° C. for 6 mins, 98° C. for 2 mins and finally cooled to 4° C. HBV DNA is then quantified by qPCR with HBV-specific primers and probes as specified in Table 3 using the Bio-Rad SSOAdvanced Universal Probes Supermix on a CFX96 machine (Bio-Rad). The PCR cycle program consisted of 95° C. for 3 mins, followed by 40 cycles at 95° C. for 10 sec and 60° C. for 30 sec.
A DNA standard is prepared by dilution of an IDT gBlock corresponding to the amplicon with concentrations ranging from 10^2 to 10^8 copies/input (i.e., per 4 μL) and used to generate a standard curve by plotting Cq values vs. HBV DNA standard concentration. The quantity of HBV DNA in each sample is determined by interpolating from the standard curve.
(§4) Cell viability is calculated as follows: % Cell viability=(luminescence value of test sample)/(average luminescence value of 2% DMSO control)×100%. HBV DNA inhibition was calculated as follows: 100−(HBV DNA copy number of test sample)/(average HBV DNA copy number of 2% DMSO control)×100%. No normalization to entecavir is required due to the excellent dynamic window of this assay. The CC50, EC50 and EC9o values were determined by dose-response curves fitted using non-linear regression.

[2] = Cell viability by CellTiter-Glo 2.0 (intracellular ATP content) in HepG2.117 cells; type: cell-based; settings: human, CellTiter-Glo 2.0, 3 days incubation
Method: as §1, §2, §3
Using the other plates, the cell viability is quantified by CellTiter-Glo 2.0 according to the manufacturer's manual. In brief, 100 μL of reagent solution is added to the culture plates and shaken for 2′. The plates are incubated at rt for 10 min and luminescence signal is subsequently measured on a VarioSkan Lux (ThermoFisher) plate reader.
as §4

| Structure (SMILES) | EC50 [1] [nM] | CC50 at 3 days [2] [nM] |
| --- | --- | --- |
| Cc1cc(C)n(-c2nc3c(c(=O)n2-c2ccc(-c4cnn(C)c4)cn2)C[C@@H](C)N(C(=O)c2ccc(Br)c(C(F)(F)F)c2)C3)n1 [Compound 16, (6R)-7-[4-bromo-3-(trifluoromethyl)benzoyl]-2-(3,5-dimethylpyrazol-1-yl)-6-methyl-3-[5-(1-methylpyrazol-4-yl)-2-pyridyl]-6,8-dihydro-5H-pyrido[3,4-d]pyrimidin-4-one] | < 50 | > 500 |
| Cc1cc(C)n(-c2nc3c(c(=O)n2-c2cc(Cl)c4c(c2)ncn4C)C[C@@H](C)N(C(=O)c2ccc(Br)c(C(F)(F)F)c2)C3)n1 [Compound 17, (6R)-7-[4-bromo-3-(trifluoromethyl)benzoyl]-3-(7-chloro-1-methyl-benzimidazol-5-yl)-2-(3,5-dimethylpyrazol-1-yl)-6-methyl-6,8-dihydro-5H-pyrido[3,4-d]pyrimidin-4-one] | < 50 | > 500 |
| CNC(=O)c1ccc(-n2c(-n3nc(C)cc3C)nc3c(c2=O)C[C@@H](C)N(C(=O)c2ccc(Br)c(C(F)(F)F)c2)C3)cn1 [Compound 18, 5-[(6R)-7-[4-bromo-3-(trifluoromethyl)benzoyl]-2-(3,5-dimethylpyrazol-1-yl)-6-methyl-4-oxo-6,8-dihydro-5H-pyrido[3,4-d]pyrimidin-3-yl]-N-methyl-pyridine-2-carboxamide] | < 50 | > 500 |
| Cc1cc(C)n(-c2nc3c(c(=O)n2-c2cnc4c(c2)ncn4C)C[C@@H](C)N(C(=O)c2ccc(Br)c(C(F)(F)F)c2)C3)n1 [Compound 19, (6R)-7-[4-bromo-3-(trifluoromethyl)benzoyl]-2-(3,5-dimethylpyrazol-1-yl)-6-methyl-3-(3-methylimidazo[4,5-b]pyridin-6-yl)-6,8-dihydro-5H-pyrido[3,4-d]pyrimidin-4-one] | < 50 | > 500 |
| Cc1cc(C)n(-c2nc3c(c(=O)n2-c2cnc4c(ncn4C)n2)C[C@@H](C)N(C(=O)c2ccc(Br)c(C(F)(F)F)c2)C3)n1 [Compound 20, (6R)-7-[4-bromo-3-(trifluoromethyl)benzoyl]-2-(3,5-dimethylpyrazol-1-yl)-6-methyl-3-(1-methylimidazo[4,5-b]pyrazin-5-yl)-6,8-dihydro-5H-pyrido[3,4-d]pyrimidin-4-one] | < 50 | > 500 |
| Cc1cc(C)n(-c2nc3c(c(=O)n2-c2cc(F)c4ncn(C)c4c2)C[C@@H](C)N(C(=O)c2ccc(Br)c(C(F)(F)F)c2)C3)n1 [Compound 21, (6R)-7-[4-bromo-3-(trifluoromethyl)benzoyl]-2-(3,5-dimethylpyrazol-1-yl)-3-(7-fluoro-3-methyl-benzimidazol-5-yl)-6-methyl-6,8-dihydro-5H-pyrido[3,4-d]pyrimidin-4-one] | < 50 | > 500 |
| Cc1cc(C)n(-c2nc3c(c(=O)n2-c2cc(F)c4c(c2)ncn4C)C[C@@H](C)N(C(=O)c2ccc(Br)c(C(F)(F)F)c2)C3)n1 [Compound 22, (6R)-7-[4-bromo-3-(trifluoromethyl)benzoyl]-2-(3,5-dimethylpyrazol-1-yl)-3-(7-fluoro-1-methyl-benzimidazol-5-yl)-6-methyl-6,8-dihydro-5H-pyrido[3,4-d]pyrimidin-4-one] | < 50 | > 500 |
| Cc1cc(C)n(-c2nc3c(c(=O)n2-c2ccc4c(c2)ncn4CC(F)F)C[C@@H](C)N(C(=O)c2ccc(Br)c(C(F)(F)F)c2)C3)n1 [Compound 23, (6R)-7-[4-bromo-3-(trifluoromethyl)benzoyl]-3-[1-(2,2-difluoroethyl)benzimidazol-5-yl]-2-(3,5-dimethylpyrazol-1-yl)-6-methyl-6,8-dihydro-5H-pyrido[3,4-d]pyrimidin-4-one] | < 50 | > 500 |
| CNC(=O)c1ccc(-n2c(-n3nc(C)cc3C)nc3c(c2=O)C[C@@H](C)N(C(=O)c2ccc(Br)c(C(F)(F)F)c2)C3)cc1N [Compound 24, 2-amino-4-[(6R)-7-[4-bromo-3-(trifluoromethyl)benzoyl]-2-(3,5-dimethylpyrazol-1-yl)-6-methyl-4-oxo-6,8-dihydro-5H-pyrido[3,4-d]pyrimidin-3-yl]-N-methyl-benzamide] | < 50 | > 500 |
| Cc1cc(C)n(-c2nc3c(c(=O)n2-c2ccc(NC(C)C)nc2)C[C@@H](C)N(C(=O)c2ccc(Br)c(C(F)(F)F)c2)C3)n1 [Compound 25, (6R)-7-[4-bromo-3-(trifluoromethyl)benzoyl]-2-(3,5-dimethylpyrazol-1-yl)-3-[6-(isopropylamino)-3-pyridyl]-6-methyl-6,8-dihydro-5H-pyrido[3,4-d]pyrimidin-4-one] | < 50 | > 500 |
| Cc1cc(C)n(-c2nc3c(c(=O)n2-c2cc(C)c4c(c2)ncn4C)C[C@@H](C)N(C(=O)c2ccc(Br)c(C(F)(F)F)c2)C3)n1 [Compound 26, (6R)-7-[4-bromo-3-(trifluoromethyl)benzoyl]-3-(1,7-dimethylbenzimidazol-5-yl)-2-(3,5-dimethylpyrazol-1-yl)-6-methyl-6,8-dihydro-5H-pyrido[3,4-d]pyrimidin-4-one] | < 50 | > 500 |
| Cc1cc(C)n(-c2nc3c(c(=O)n2-c2ccc(N4CCOCC4)nc2)C[C@@H](C)N(C(=O)c2ccc(Br)c(C(F)(F)F)c2)C3)n1 [Compound 27, (6R)-7-[4-bromo-3-(trifluoromethyl)benzoyl]-2-(3,5-dimethylpyrazol-1-yl)-6-methyl-3-(6-morpholino-3-pyridyl)-6,8-dihydro-5H-pyrido[3,4-d]pyrimidin-4-one] | < 50 | > 500 |
| Cc1cc(C)n(-c2nc3c(c(=O)n2-c2ccc(OC[C@H](C)O)nc2)C[C@@H](C)N(C(=O)c2ccc(Br)c(C(F)(F)F)c2)C3)n1 [Compound 28, (6R)-7-[4-bromo-3-(trifluoromethyl)benzoyl]-2-(3,5-dimethylpyrazol-1-yl)-3-[6-[(2S)-2-hydroxypropoxy]-3-pyridyl]-6-methyl-6,8-dihydro-5H-pyrido[3,4-d]pyrimidin-4-one] | < 50 | > 500 |
| Cc1cc(C)n(-c2nc3c(c(=O)n2-c2ccc(NC[C@H](C)O)nc2)C[C@@H](C)N(C(=O)c2ccc(Br)c(C(F)(F)F)c2)C3)n1 [Compound 29, (6R)-7-[4-bromo-3-(trifluoromethyl)benzoyl]-2-(3,5-dimethylpyrazol-1-yl)-3-[6-[[(2S)-2-hydroxypropyl]amino]-3-pyridyl]-6-methyl-6,8-dihydro-5H-pyrido[3,4-d]pyrimidin-4-one] | < 50 | > 500 |
| Cc1cc(C)n(-c2nc3c(c(=O)n2-c2ccc(NC[C@@H](O)CO)nc2)C[C@@H](C)N(C(=O)c2ccc(Br)c(C(F)(F)F)c2)C3)n1 [Compound 30, (6R)-7-[4-bromo-3-(trifluoromethyl)benzoyl]-3-[6-[[(2R)-2,3-dihydroxypropyl]amino]-3-pyridyl]-2-(3,5-dimethylpyrazol-1-yl)-6-methyl-6,8-dihydro-5H-pyrido[3,4-d]pyrimidin-4-one] | 50 to 500 | > 500 |
| Cc1cc(C)n(-c2nc3c(c(=O)n2-c2ccc(NC[C@H](O)CO)nc2)C[C@@H](C)N(C(=O)c2ccc(Br)c(C(F)(F)F)c2)C3)n1 [Compound 31, (6R)-7-[4-bromo-3-(trifluoromethyl)benzoyl]-3-[6-[[(2S)-2,3-dihydroxypropyl]amino]-3-pyridyl]-2-(3,5-dimethylpyrazol-1-yl)-6-methyl-6,8-dihydro-5H-pyrido[3,4-d]pyrimidin-4-one] | 50 to 500 | > 500 |
| Cc1cc(C)n(-c2nc3c(c(=O)n2-c2ccc(N4CC(O)C4)nc2)C[C@@H](C)N(C(=O)c2ccc(Br)c(C(F)(F)F)c2)C3)n1 [Compound 32, (6R)-7-[4-bromo-3-(trifluoromethyl)benzoyl]-2-(3,5-dimethylpyrazol-1-yl)-3-[6-(3-hydroxyazetidin-1-yl)-3-pyridyl]-6-methyl-6,8-dihydro-5H-pyrido[3,4-d]pyrimidin-4-one] | < 50 | > 500 |
